Results as given in patent EP2884284A1, “Dry diagnostic reagent” (priority 2013, dated 2015).

How the values were obtained:
[1] = Dissolution of the freeze-dried product on contact with a water surface; format: physicochemical; settings: freeze-dried from c = 320 mg/mL
From the text: In addition, no collapse or meltback could be detected when CLG was freeze-dried appropriately. CLG is, however, evidently metastable as a solid, i.e. amorphous.

citrated whole blood [2] = experiment: ROTEM EXTEM assay, recalcification with CLG solutions, tissue factor activation; settings: CLG solution 396 mg/mL, 4 µL in 300 µL citrated whole blood, extem reagent, student t test p = 0.05, n = 10
Protocol: (§1) The influence of CLG on coagulation was determined using a ROTEM® device (TEM Innovations GmbH, Germany) and whole blood from healthy volunteers using either the EXTEM assay or the NATEM assay. Coagulation was therefore either initiated using the tissue factor based ex-tem® reagent (+recalcification) (TEM Innovations GmbH, Germany) or only by recalcification of the citrated whole blood sample. […]; ROTEM® reagent; TEM Innovations GmbH, Germany). Solutions of CLG were taken to show the influence of the substance independent of the dissolution behavior of the substance.
In detail, 300 µL citrated whole blood were taken, mixed with 4 µL of the respective solution of CLG of each concentration or of the star-tem@ reagent, and 16 µL of a 0.9% (m/V) NaCl-solution in ultrapure water. Blood clotting was initiated using the tissue factor based extem® reagent. […] Therefore it is possible to recalcify standard citrated whole blood and restore its clotting ability by using CLG solutions. This is depicted in Figure 2, wherein the data of a ROTEM experiment using two differently concentrated solutions of CLG (320 mg/mL and 396 mg/mL) were used. […]

[3] = Hygroscopicity measurement by mass increase in a glove box at relative air humidity > 50%; format: physicochemical; settings: 1.0g sample, 22.5°C to […], 96 hours, referring to the initial mass
Protocol: The hygroscopicity of compounds was measured by weighing (Mettler AT261 "Delta Range" balance) in the samples at the start of the experiment and at certain time points within a total period of 96 hours. The increase in mass (in %) was calculated for each sample as: (mt -mt0)/(mt0) × 100% [formula] • wherein mt is the mass of the sample at a certain time t and Mt0 is the mass of the sample at the start when placing it in the glove box.

[4] = Glass transition temperature Tg by differential scanning calorimetry; format: physicochemical
Protocol: Hydranal® Coulomat AG Oven served as a reagent. About 10 mg of the substance was used for an expected residual moisture between 5 - 10%(m/m) and about 50 - 80 mg were used for an expected moisture content […]. […]
Primary drying was carried out at Tinlet = -30° C / 30mtorr for 15h followed by secondary drying at 40°C / 30mtorr for 6h with a heating rate between the two steps of 0.3 °C/min. The glass transition temperature as well as the residual moisture content were measured after freeze drying for the respective substance.

citrated whole blood [5] = experiment: ROTEM ex-tem assay, recalcification with freeze-dried pellets; settings: p = 0.05, n = 10
Protocol: The compatibility with coagulation measurement was determined using the ROTEM® device. The measurement was conducted according to the respective automated ROTEM® sequence. 300 µL citrated whole blood (obtained from healthy individuals) were used for each measurement. The pipetting of the respective liquid reagents was performed according to the sequence or was skipped for the solid reagents. […] Coagulation was initiated using the tissue factor based ex-tem® reagent.
The ex-tem® assay was selected because of the tissue factor coagulation activation and the resulting short clotting times (CT). Therefore it was possible to investigate whether the freeze-dried products containing a high amount of solid would dissolve rapidly enough to assure complete recalcification and clotting times within a normal range.

citrated whole blood [6] = experiment: ROTEM NATEM assay, recalcification only (contact pathway activation)
Protocol: as §1
In addition the clotting properties were investigated when coagulation of whole blood (using 300µL of citrated whole blood) was not initiated using tissue factor but only contact pathway activation, i.e. the citrated whole blood was recalcified using either the star-tem@ reagent or a CLG solution. The measurement was performed according to the automated ROTEM® sequence. Normal values were taken from the "expected values" section of the "instructions for use" sheet provided together with the star-tem@ reagent. A comparison was carried out with the star-tem@ reagent and the CLG solution with a concentration of 396 mg/mL of example 2. […] Table 1: Measurement values of the data determined in Example 2

[7] = freeze-dried CLG pellets, 4µmol equivalent
[8] = freeze-dried CLG pellets, lower amount of CLG
[9] = 300µL citrated whole blood, CLG solution 396 mg/mL or star-tem reagent, no tissue factor

For calcium lacto gluconate [CLG], the “dissolution of the freeze-dried product” value [1] was “dissolved rapidly and completely after a few seconds”, the “clotting time (CT), difference to star-tem solution” value (citrated whole blood [2]) was “no significant (student t test; probability p = 0.05, n = 10) difference” and the mass increase [3] was < 0.1%. For the same substance, the glass transition ([4]; 1:1 (CL:CG) mixture, moisture content 5.71 % [m/m]) was ~87.20 °C, the glass transition ([4]; 2:1 (CL:CG) mixture, moisture content 6.52 % [m/m]) was “about 84.90 °C” and the Tg ([4]; CLG ratio 0, moisture content 0 %(m/m)) was 110.03 °C. For the same substance, the Tg ([4]; CLG ratio 0, moisture content 3.69 %(m/m)) was 79.16 °C, the Tg ([4]; CLG ratio 0, moisture content 9.86 %(m/m)) was 29.77 °C and the Tg ([4]; CLG ratio 0, moisture content 14.30 %(m/m)) was 14.26 °C. For the same substance, the Tg ([4]; CLG ratio 28.93, moisture content 0 %(m/m)) was 125.01 °C, the Tg ([4]; CLG ratio 28.93, moisture content 4.54 %(m/m)) was 92.14 °C and the Tg ([4]; CLG ratio 28.93, moisture content 5.71 %(m/m)) was 87.20 °C. The Tg ([4]; CLG ratio 28.93, moisture content 8.30 %(m/m)) was 61.35 °C, the Tg ([4]; CLG ratio 28.93, moisture content 9.91 %(m/m)) was 40.75 °C and the Tg ([4]; CLG ratio 50.44, moisture content 6.52 %(m/m)) was 84.9 °C. For the same substance, the Tg ([4]; CLG ratio 62.23, moisture content 0 %(m/m)) was 144.37 °C, the Tg ([4]; CLG ratio 62.23, moisture content 10.00 %(m/m)) was 58.91 °C and the Tg ([4]; CLG ratio 62.23, moisture content 10.37 %(m/m)) was 56.54 °C. It also gave a Tg ([4]; CLG ratio %(m(CL)/m(CLG)) = 100, moisture content 0 %(m/m) (annealed)) of 152.06 °C, a Tg ([4]; CLG ratio %(m(CL)/m(CLG)) = 100, moisture content 5.20 %(m/m)) of 112.86 °C and a Tg ([4]; CLG ratio %(m(CL)/m(CLG)) = 100, moisture content 10.15 %(m/m)) of 58.45 °C. For the same substance, the Tg ([4]; CLG ratio %(m(CL)/m(CLG)) = 100, moisture content […](m/m)) was 34.39 °C, the “CT values, difference to reference” value (citrated whole blood [5]; freeze-dried CLG pellets versus 20µL star-tem reagent, ex-tem activation) was “no significant (p = 0.05; n = 10) difference” and the “amplitudes after 10 minutes reaction time (A10), difference to reference” value (citrated whole blood [5]; [7]) was “Neither the clot formation times (CFT) nor the amplitudes after 10 minutes reaction time (A10) of the 4µmol equivalent did significantly (p = 0.05, n = 10) differ from the reference”. The “clot formation times (CFT), difference to reference” value (citrated whole blood [5]; [7]) was “Neither the clot formation times (CFT) nor the amplitudes after 10 minutes reaction time (A10) of the 4µmol equivalent did significantly (p = 0.05, n = 10) differ from the reference”, the “A10, difference to reference” value (citrated whole blood [5]; [8]) was “slight but significant (p = 0.05, n = 10) variations” and the “CFT, difference to reference” value (citrated whole blood [5]; [8]) was “slight but significant (p = 0.05, n = 10) variations”. For the same substance, the CFT (citrated whole blood [6]; [9]) was 183.00, the alpha (citrated whole blood [6]; [9]) was 54.67 ° and the “difference between clotting time” value (citrated whole blood [6]; CLG solution 396 mg/mL versus star-tem reagent) was “around 3%”. For the same substance, the A10 (citrated whole blood [6]; amplitude after 10 minutes, 300µL citrated whole blood, CLG solution 396 mg/mL or star-tem reagent, no tissue factor) was 42.33 and the MCF (citrated whole blood [6]; maximum clot firmness, 300µL citrated whole blood, CLG solution 396 mg/mL or star-tem reagent, no tissue factor) was 51.33.
